What all share (type): in vivo
Settings in all cases: 100 = 100% disease control

Experiment [1] concerns Septoria tritici (the causal agent of wheat leaf blotch). The experiment is described as follows: Test B: wheat leaf blotch, preventive spray on wheat seedlings, visual disease rating. The method in brief: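 Preventive test: Septoria tritici spores applied one day after run-off spraying of seedlings (200 ppm equals 800 g/ha; some tests 40 ppm). After 48 h at 24 °C saturated atmosphere and 19 days at 20 °C, disease scored visually as % control relative to untreated plants.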

Experiment [2] concerns Puccinia recondite f. sp. tritici (the causal agent of wheat leaf rust). The experiment is described as follows: Test A: wheat leaf rust, preventive spray on wheat seedlings, visual disease rating. Summed up: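 This was a preventive test: Puccinia recondite f. sp. tritici inoculum was applied one day after compound spray to run-off. Test suspensions were made in 50/50 acetone/water with 250 ppm surfactant, at 200 ppm (800 g/ha equivalent) or 40 ppm. Visual ratings of % disease control relative to controls were made after 24 h of saturated humidity and 7 growth-chamber days, all at 20° C.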

The test system of experiment [3] is Botrytis cinerea (the causal agent of tomato Botrytis). The experiment is described as follows: Test C: tomato Botrytis, preventive spray on tomato seedlings, visual disease rating. Summed up:
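Preventive test: B. cinerea spore inoculation one day after tomato seedlings were sprayed to run-off with compound suspended in 50/50 acetone–water plus 250 ppm surfactant. Plants held 48 h at 20° C in saturated air, then 3 days at 24° C; visual ratings scored 100 (full control) to 0 versus controls; some entries used 40 ppm.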

Experiment [4] concerns Blumeria graminis f. sp. tritici (also known as Erysiphe graminis f. sp. tritici, the causal agent of wheat powdery mildew). The experiment is described as follows: Test D: wheat powdery mildew, preventive spray on wheat seedlings, visual disease rating. Summed up: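 Preventive test: seedlings sprayed to run-off and inoculated with powdery mildew spores one day later. Suspensions were made in 50/50 acetone/water with 250 ppm Trem 014 surfactant (200 ppm equals 800 g/ha). Visual ratings after 8 days at 20 °C give percent disease control versus controls.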

The mark [5] stands for this setting: asterisk: 40 ppm test suspension, 0 = no control.
Where [6] appears, read: no asterisk: standard test suspension concentration, 0 = no control relative to controls.

Structures are written as SMILES. Marks after values point to notes of the source that are not given here.

Consider `Cc1nc(Br)c(C(O)c2ccc(F)cc2Br)n1-c1c(F)cccc1F` (stereo not shown) [compound 384], for which the “Test B rating (% disease control, wheat leaf blotch)” value in experiment [1] (setting [5]) is recorded as 100* %. Also, the “Test A rating (% disease control, wheat leaf rust)” value in experiment [2] (setting [5]) is 100* %. For the same compound, in experiment [3] (setting [5]), the “Test C rating (% disease control, tomato Botrytis)” value is listed as 65* %. In addition, the “Test D rating (% disease control, wheat powdery mildew)” value in experiment [4] (setting [5]) is given as 72* %.
In the case of `Cc1nc(Cl)c(C(O)c2ccc(F)cc2Br)n1-c1c(F)cccc1Cl` (stereo not shown) [compound 386], in experiment [1] (setting [5]), the “Test B rating (% disease control, wheat leaf blotch)” value is recorded as 100* %. The “Test A rating (% disease control, wheat leaf rust)” value in experiment [2] (setting [5]) is listed as 100* %. The “Test C rating (% disease control, tomato Botrytis)” value in experiment [3] (setting [5]) is 100* %. The “Test D rating (% disease control, wheat powdery mildew)” value in experiment [4] (setting [5]) was 73* %.
`Cc1nc(Br)c(C(O)c2ccc(F)cc2Br)n1-c1c(F)cccc1Cl` (stereo not shown) [compound 387]: in experiment [1] (setting [5]), the “Test B rating (% disease control, wheat leaf blotch)” value is reported as 100* %. Moreover, the “Test A rating (% disease control, wheat leaf rust)” value in experiment [2] (setting [5]) is on record as 100* %. In addition, the “Test C rating (% disease control, tomato Botrytis)” value in experiment [3] (setting [5]) was 99* %. For the same compound, in experiment [4] (setting [6]), the “Test D rating (% disease control, wheat powdery mildew)” value is 90%.
On to `Cc1nc(Cl)c(C(O)c2ccc(F)cc2F)n1-c1c(F)cccc1Cl` (stereo not shown) [compound 389], for which the “Test B rating (% disease control, wheat leaf blotch)” value in experiment [1] (setting [5]) is 100* %. For the same compound, the “Test A rating (% disease control, wheat leaf rust)” value in experiment [2] (setting [5]) is reported as 100* %. The “Test C rating (% disease control, tomato Botrytis)” value in experiment [3] (setting [5]) was 100* %. Further, in experiment [4] (setting [6]), the “Test D rating (% disease control, wheat powdery mildew)” value came to 98%.
With `COc1cc(F)c(-n2c(C)nc(Br)c2C(O)c2ccc(F)cc2C)c(F)c1` (stereo not shown) [compound 391], the “Test B rating (% disease control, wheat leaf blotch)” value in experiment [1] (setting [5]) is on record as 100* %. Also, in experiment [2] (setting [5]), the “Test A rating (% disease control, wheat leaf rust)” value is 99* %. Further, in experiment [3] (setting [5]), the “Test C rating (% disease control, tomato Botrytis)” value was 0* %. In experiment [4] (setting [5]), the “Test D rating (% disease control, wheat powdery mildew)” value was 0* %.
Take `COc1cc(F)c(-n2c(C)nc(Br)c2C(O)c2ccc(F)cc2Cl)c(F)c1` (stereo not shown) [compound 392]: the “Test B rating (% disease control, wheat leaf blotch)” value in experiment [1] (setting [5]) is given as 100* %. In addition, the “Test A rating (% disease control, wheat leaf rust)” value in experiment [2] (setting [5]) is 99* %. Further, in experiment [3] (setting [5]), the “Test C rating (% disease control, tomato Botrytis)” value is 0* %. In addition, the “Test D rating (% disease control, wheat powdery mildew)” value in experiment [4] (setting [5]) is 0* %.
`Cc1nc(Br)c(C(O)c2ccc(F)cc2F)n1-c1c(F)cccc1Br` (stereo not shown) [compound 393]: the “Test B rating (% disease control, wheat leaf blotch)” value in experiment [1] (setting [6]) is listed as 100%. Besides, in experiment [2] (setting [6]), the “Test A rating (% disease control, wheat leaf rust)” value was found to be 100%. Further, in experiment [3] (setting [6]), the “Test C rating (% disease control, tomato Botrytis)” value is 100%. For the same compound, in experiment [4] (setting [6]), the “Test D rating (% disease control, wheat powdery mildew)” value was 97%.
With `Cc1nc(Br)c(C(O)c2ccc(F)cc2F)n1-c1c(F)cc(F)cc1Br` (stereo not shown) [compound 394], the “Test B rating (% disease control, wheat leaf blotch)” value in experiment [1] (setting [6]) was determined as 100%. For the same compound, the “Test A rating (% disease control, wheat leaf rust)” value in experiment [2] (setting [6]) came out at 100%. In experiment [3] (setting [6]), the “Test C rating (% disease control, tomato Botrytis)” value is 100%. For the same compound, in experiment [4] (setting [6]), the “Test D rating (% disease control, wheat powdery mildew)” value is listed as 72%.
As for `Cc1cc(F)ccc1C(O)c1cnc(C)n1-c1ccc(F)cc1Cl` (stereo not shown) [compound 395], the “Test B rating (% disease control, wheat leaf blotch)” value in experiment [1] (setting [6]) is recorded as 100%. In experiment [2] (setting [6]), the “Test A rating (% disease control, wheat leaf rust)” value is recorded as 99%. The “Test C rating (% disease control, tomato Botrytis)” value in experiment [3] (setting [6]) worked out at 21%. Further, the “Test D rating (% disease control, wheat powdery mildew)” value in experiment [4] (setting [6]) is 35%.
In the same order, the values of `Cc1ncc(C(O)c2ccc(F)cc2F)n1-c1ccc(F)cc1Cl` (stereo not shown) [compound 396] are 100%, 100%, 87% and 0%.
In the case of `Cc1cc(F)ccc1C(O)c1c(Br)nc(C)n1-c1ccc(F)cc1Cl` (stereo not shown) [compound 397], the “Test B rating (% disease control, wheat leaf blotch)” value in experiment [1] (setting [6]) turned out to be 100%. For the same compound, the “Test A rating (% disease control, wheat leaf rust)” value in experiment [2] (setting [6]) is listed as 100%. For the same compound, the “Test C rating (% disease control, tomato Botrytis)” value in experiment [3] (setting [6]) is recorded as 100%. The “Test D rating (% disease control, wheat powdery mildew)” value in experiment [4] (setting [6]) came to 73%.
On to `Cc1cc(F)ccc1C(O)c1c(Cl)nc(C)n1-c1ccc(F)cc1Cl` (stereo not shown) [compound 398], for which the “Test B rating (% disease control, wheat leaf blotch)” value in experiment [1] (setting [6]) is given as 100%. Moreover, the “Test A rating (% disease control, wheat leaf rust)” value in experiment [2] (setting [6]) is 100%. Moreover, the “Test C rating (% disease control, tomato Botrytis)” value in experiment [3] (setting [6]) stood at 46%. Further, in experiment [4] (setting [6]), the “Test D rating (% disease control, wheat powdery mildew)” value was 0%.
`Cc1nc(Br)c(C(O)c2ccc(F)cc2F)n1-c1ccc(F)cc1Cl` (stereo not shown) [compound 399]: in experiment [1] (setting [6]), the “Test B rating (% disease control, wheat leaf blotch)” value turned out to be 100%. In experiment [2] (setting [6]), the “Test A rating (% disease control, wheat leaf rust)” value was found to be 100%. In addition, the “Test C rating (% disease control, tomato Botrytis)” value in experiment [3] (setting [6]) was 99%. Further, the “Test D rating (% disease control, wheat powdery mildew)” value in experiment [4] (setting [6]) is recorded as 90%.
`Cc1nc(Br)c(C(O)c2ccc(F)cc2F)n1-c1c(F)cccc1Cl` (stereo not shown) [compound 400]: the “Test B rating (% disease control, wheat leaf blotch)” value in experiment [1] (setting [5]) is reported as 100* %. Also, the “Test A rating (% disease control, wheat leaf rust)” value in experiment [2] (setting [5]) is 100* %. In addition, in experiment [3] (setting [5]), the “Test C rating (% disease control, tomato Botrytis)” value is 100* %. The “Test D rating (% disease control, wheat powdery mildew)” value in experiment [4] (setting [5]) is 100* %.
Regarding `COc1cc(F)c(-n2c(C)nc(Cl)c2C(O)c2ccc(F)cc2Cl)c(F)c1` (stereo not shown) [compound 403], in experiment [1] (setting [5]), the “Test B rating (% disease control, wheat leaf blotch)” value is reported as 100* %. Besides, the “Test A rating (% disease control, wheat leaf rust)” value in experiment [2] (setting [5]) was 99* %. Further, the “Test C rating (% disease control, tomato Botrytis)” value in experiment [3] (setting [5]) is 8* %. The “Test D rating (% disease control, wheat powdery mildew)” value in experiment [4] (setting [5]) is on record as 0* %.
For `Cc1cc(F)ccc1C(O)c1cnc(C)n1-c1c(F)cccc1Br` (stereo not shown) [compound 405], the “Test B rating (% disease control, wheat leaf blotch)” value in experiment [1] (setting [6]) stood at 94%. In experiment [2] (setting [6]), the “Test A rating (% disease control, wheat leaf rust)” value is recorded as 99%. Further, the “Test C rating (% disease control, tomato Botrytis)” value in experiment [3] (setting [6]) amounted to 9%. For the same compound, the “Test D rating (% disease control, wheat powdery mildew)” value in experiment [4] (setting [6]) was 0%.
Consider `Cc1cc(F)ccc1C(O)c1c(Br)nc(C)n1-c1c(F)cccc1Br` (stereo not shown) [compound 406], for which, in experiment [1] (setting [6]), the “Test B rating (% disease control, wheat leaf blotch)” value was 100%. Moreover, the “Test A rating (% disease control, wheat leaf rust)” value in experiment [2] (setting [6]) is 100%. Further, the “Test C rating (% disease control, tomato Botrytis)” value in experiment [3] (setting [6]) came to 43%. Further, in experiment [4] (setting [6]), the “Test D rating (% disease control, wheat powdery mildew)” value is reported as 56%.
In the case of `Cc1cc(F)ccc1C(O)c1c(Cl)nc(C)n1-c1c(F)cccc1Br` (stereo not shown) [compound 407], the “Test B rating (% disease control, wheat leaf blotch)” value in experiment [1] (setting [6]) was 100%. The “Test A rating (% disease control, wheat leaf rust)” value in experiment [2] (setting [6]) came to 99%. Moreover, the “Test C rating (% disease control, tomato Botrytis)” value in experiment [3] (setting [6]) is 52%. Also, the “Test D rating (% disease control, wheat powdery mildew)” value in experiment [4] (setting [6]) is listed as 0%.
In the same order, the values of `Cc1cc(F)ccc1C(O)c1c(Br)nc(C)n1-c1c(F)cc(F)cc1Br` (stereo not shown) [compound 408] are 100%, 100%, 99% and 56%.
For the compound `Cc1ncc(C(O)c2ccc(F)cc2F)n1-c1c(F)cccc1Br` (stereo not shown) [compound 409], the “Test B rating (% disease control, wheat leaf blotch)” value in experiment [1] (setting [6]) is listed as 100%. In addition, the “Test A rating (% disease control, wheat leaf rust)” value in experiment [2] (setting [6]) was 99%. Besides, the “Test C rating (% disease control, tomato Botrytis)” value in experiment [3] (setting [6]) is 57%. The “Test D rating (% disease control, wheat powdery mildew)” value in experiment [4] (setting [6]) turned out to be 0%.
The like results for `Cc1ncc(C(O)c2ccc(F)cc2F)n1-c1c(F)cc(F)cc1Br` (stereo not shown) [compound 410] were, in that order, 100%, 100%, 97% and 13%.
`COc1cc(F)c(-n2c(C)nc(Cl)c2C(O)c2ccc(F)cc2F)c(F)c1` (stereo not shown) [compound 411]: the “Test B rating (% disease control, wheat leaf blotch)” value in experiment [1] (setting [5]) is 100* %. In experiment [2] (setting [5]), the “Test A rating (% disease control, wheat leaf rust)” value is on record as 100* %. Further, the “Test C rating (% disease control, tomato Botrytis)” value in experiment [3] (setting [5]) is 85* %. Besides, the “Test D rating (% disease control, wheat powdery mildew)” value in experiment [4] (setting [5]) is given as 50* %.

The values are drawn from patent US20130143929A1, “FUNGICIDAL IMIDAZOLES” (EI DU PONT DE NEMOURS AND COMPANY, priority 2010, published 2013).
